# Reference: patent publication US20090012163A1, “Compositions containing Mg/Zn/F-CaP plus inhibitors of pro-inflammatory cytokines (alpha ketoalkanoic acid compound) for osteoporosis prevention, therapy and treatment of bone diseases” (priority 2007, published 2009)
# System: TNFa release from stimulated peripheral blood monocytes (PBMCs)
# Assay: Inhibition by ethyl pyruvate of TNFa release from LPS-stimulated PBMCs (ELISA)
# Type: cell-based
# Details: for TNFa release, LPS (5 ug/ml) / TNFa release, LPS (10 ug/ml): ELISA; for inhibition at 5000 µM / inhibition at 10000 µM / inhibition at 25000 µM / inhibition at 50000 µM: PBMC
# Procedure: The Effect of Alpha-Ketoalkanoic Acid on TNFa Release from Stimulated Peripheral Blood Monocytes (PBMCS)
# The cells were cultured in RPMI 1640 supplemented with 1% serum albumin for approximately 12 hours before treating with LPS (Lipopolysaccharide from E. Coli) at increasing concentrations to induce TNFa release. […] The effects of ethyl pyruvate (EP) on PBMC=s macrophages cultures with 5-10 micrograms of LPS was used to stimulate relase of TNFa.
# Inhibition by Ethyl Pyruvate of TNFa Release (Measured via ELISA Assay)
smiles,measurement,setting,value
"CCOC(=O)C(C)=O [EP, ethyl pyruvate]","TNFa release, LPS (5 ug/ml)","EP 5 mM, LPS 5 ug/ml",450 arbitrary fluorescence units
same,"TNFa release, LPS (10 ug/ml)","EP 5 mM, LPS 10 ug/ml",480 arbitrary fluorescence units
same,"TNFa release, LPS (5 ug/ml)","EP 10 mM, LPS 5 ug/ml",275 arbitrary fluorescence units
same,"TNFa release, LPS (10 ug/ml)","EP 10 mM, LPS 10 ug/ml",310 arbitrary fluorescence units
same,"TNFa release, LPS (5 ug/ml)","EP 25 mM, LPS 5 ug/ml",201 arbitrary fluorescence units
same,"TNFa release, LPS (10 ug/ml)","EP 25 mM, LPS 10 ug/ml",190 arbitrary fluorescence units
same,"TNFa release, LPS (5 ug/ml)","EP 50 mM, LPS 5 ug/ml",200 arbitrary fluorescence units
same,"TNFa release, LPS (10 ug/ml)","EP 50 mM, LPS 10 ug/ml",180 arbitrary fluorescence units
same,Inhibition of TNFa release (in words),"LPS & EP incubated in the cultures, different concentrations",effective inhibitor of TNFa release
same,inhibition at 5000 µM,"EP 5 mM, LPS 5 ug/ml",12%
same,inhibition at 5000 µM,"EP 5 mM, LPS 10 ug/ml",6%
same,inhibition at 10000 µM,"EP 10 mM, LPS 5 ug/ml",47%
same,inhibition at 10000 µM,"EP 10 mM, LPS 10 ug/ml",59%
same,inhibition at 25000 µM,"EP 25 mM, LPS 5 ug/ml",51%
same,inhibition at 25000 µM,"EP 25 mM, LPS 10 ug/ml",75%
same,inhibition at 50000 µM,"EP 50 mM, LPS 5 ug/ml",51%
same,inhibition at 50000 µM,"EP 50 mM, LPS 10 ug/ml",76%
